# Measurements: patent US20070286867A1, “Combination Therapy” (Fusion Antibodies Limited, priority 2003, published 2007)
# Legend:
# HCT116p53^+/+ cells = assay: MTT cell viability assay in HCT116 p53 wild-type cells; format: cell-based, human; details: range of drug concentrations 24 hours, then CH-11 200 ng/ml for 48 hours
# Protocol: (§3) Cell Viability Assays. Cell viability was assessed by MTT (3-(4,5-dimethylthiazol-2-yl)-2,5-diphenyltetrazolium bromide, Sigma) assay (12). […] MTT (0.5 mg/ml) was then added to each well and the cells incubated at 37° C. for a further 3 hours. The culture medium was removed and formazan crystals reabsorbed in 200 μL DMSO. Cell viability was determined by reading the absorbance of each well at 570 nm using a 96-well microplate reader (Molecular Devices, Wokingham, England). […] Twenty microlitres (20 μL) MTT (5 mg/ml) was then added to each well and the cells incubated at 37° C. for a further 3 hours. The culture medium was removed and formazan crystals reabsorbed in 200 μL DMSO. Cell viability was determined by reading the absorbance of each well at 570 nm using an ELISA plate reader (Molecular Devices).
# (§4) Statistical Analyses. The nature of the interaction between the chemotherapeutic drugs and CH-11 was determined by calculating the R index (RI), which was initially described by Kern and later modified by Romaneli (13, 14). […] Synergism is then defined as an RI of greater than unity. […] To further assess the statistical significance of the interactions, the inventors designed a univariate ANOVA analysis using the SPSS software package. This was an additive model based on the null hypothesis that there was no interaction between the drugs.
# Fas [1] = assay: Western blot of Fas expression in RKO cells; format: cell-based; details: 48 hours post-treatment; MTA data not shown
# Protocol: (§1) Western Blotting. Western blots were performed as previously described (6). The Fas/CD95, Bc1-2 and BID (Santa Cruz Biotechnology, Santa Cruz, Calif.), caspase 8 (Oncogene Research Products, Darmstadt, Germany), p53 (Santa Cruz Biotechnology), and PARP (Pharmingen, BD Biosciences, Oxford, England) mouse monoclonal antibodies were used in conjunction with a horseradish peroxidase (HRP)-conjugated sheep anti-mouse secondary antibody (Amersham, Little Chalfont, Buckinghamshire, England). FasL rabbit polyclonal antibody (Santa Cruz Biotechnology) was used in conjunction with an HRP-conjugated donkey anti-rabbit secondary antibody (Amersham). TS sheep monoclonal primary antibody (Rockland, Gilbertsville, Pa.) was used in conjunction with an HRP-conjugated donkey anti-sheep secondary antibody (Serotech, Oxford, England). Equal loading was assessed using a β-tubulin mouse monoclonal primary antibody (Sigma).
# Fas [2] = assay: Western blot of Fas expression in M7TS90-E6 cells; format: cell-based; details: 10 μM 5-FU, 100 nM RTX or 1 μM MTA
# Protocol: as §1
# [3] = test system: R175H p53 mutant cell line
# Protocol: Plasmids containing the p53 mutations R175H and R248W were kindly provided by Prof. G. Lozano (MD Anderson Cancer Center, Houston). […] Cells were seeded on p90 dishes in Optimem, (Invitrogen) supplemented with 10% FCS, at a density of 1×10^5 cells/dish. Transfection was carried out the following day when the monolayer was approximately 70% confluent. Cells were cotransfected with 1 μg pIRESpuro3 DNA and 20 μg pC53NN p53 mutant DNA using Genejuice Transfection reagent (Novagen, CA, USA) according to the manufacturer's instructions. Stably transfected cells were selected over approximately 14 days in medium containing […] puromycin. […] The DO-1 antibody binds to an N-terminal epitope between amino acid residues 11 and 25.
# Cell Viability Assays. Cell viability was assessed by MTT (3-(4,5-dimethylthiazol-2-yl)-2,5-diphenyltetrazolium bromide, Sigma) assay (12). […] Cell viability was determined by reading the absorbance of each well at 570 nm using a 96-well microplate reader (Molecular Devices, Wokingham, England). […]
# Statistical Analyses. The nature of the interaction between the chemotherapeutic drugs and CH-11 was determined by calculating the R index (RI), which was initially described by Kern and later modified by Romaneli (13, 14). […]
# MCF-7 cells [4] = assay: MTT cell viability assay in MCF-7 cells; format: cell-based
# Protocol: as §3, §4
# Fas receptor = assay: Fas/CD95 cell surface expression in p53 mutant H630 cell line (Example 11); format: cell-based; details: 48 hours; 5-FU 5 μM, CPT-11 5 μM, Oxaliplatin 1 μM
# Protocol: (§2) Where flow cytometric analysis was employed in Examples 1 to 5, the following protocol was used. Cells were seeded at 1×10^5 per well of a 6-well tissue culture plate. […] DNA content of harvested cells was evaluated after propidium iodide staining of cells using the EPICS XL Flow Cytometer (Coulter, Miami, Fla.). Where flow cytometric analysis was employed in Examples 6 to 12, the following protocol was used. Cells were seeded at 1×10^5 per well of a 6-well tissue culture plate. […] DNA content of harvested cells was evaluated after propidium iodide staining of cells using the EPICS XL Flow Cytometer (Coulter). A FITC-conjugated monoclonal anti-human Fas antibody (DAKO) was used to determine cell surface expression of the receptor. Cells were collected and washed twice in PBS before incubating in the antibody (1/20 dilution) at 4° C. for 30 mins. A non-reactive FITC-conjugated mouse IgG1 antibody was used as a negative control for each sample. Following incubation the cells were washed twice with PBS containing 2% bovine serum albumin and fixed in 0.3 mL 4% paraformaldehyde. Samples were then analysed on the EPICS XL Flow Cytometer (Coulter).
# MCF-7 cells [5] = assay: Flow cytometry of propidium iodide stained cells, sub-G1/G0 apoptotic fraction, MCF-7; format: cell-based; details: 5 μM 5-FU alone 96 hours, or 72 hours followed by 250 ng/ml CH-11 24 hours
# Protocol: as §2
# FasL = assay: Western blot of FasL expression in MCF-7 cells; format: cell-based; details: IC60 doses, 72 hours
# Protocol: as §1
# procaspase 8, BID, PARP = assay: Western blot of procaspase 8, BID and PARP in MCF-7 cells; format: cell-based; details: 5 μM 5-FU or 25 nM RTX 72 hours; CH-11 250 ng/ml 24 hours
# Protocol: as §1
# Fas/CD95 receptor = assay: Flow cytometry of Fas/CD95 cell surface expression, HCT116 p53 wild-type; format: cell-based, human; details: 24 hours
# Protocol: as §2
# Fas [6] = assay: Western blot of Fas expression in H630 cells; format: cell-based; details: range of concentrations, 48 hours
# Protocol: as §1
# Fas [7] = assay: Western blot of Fas expression in MCF-7 cells; format: cell-based
# Protocol: as §1
# Fas mRNA = assay: Northern blot of Fas mRNA in MCF-7 cells; format: cell-based; details: 48 hours, 5 μM 5-FU
# Protocol: Northern blot analysis. Northern blots were performed as described previously using a cDNA probe complementary to the Fas coding region (7). Equal loading was assessed using a P-tubulin cDNA probe.
# HCT116p53^−/− cells = assay: MTT cell viability assay in HCT116 p53 null cells; format: cell-based, human; details: range of drug concentrations 24 hours, then CH-11 200 ng/ml for 48 hours
# Protocol: as §3, §4
# Fas [8] = assay: Western blot of Fas expression in HCT116 p53 wild-type cells; format: cell-based, human
# Protocol: as §1
# Fas/CD95 mRNA = assay: Real-time PCR of Fas/CD95 mRNA in HCT116 p53 null cells; format: cell-based, human; details: IC60 72hrs doses, 24 and 48 hours
# Protocol: Real-time PCR was performed using a DNA Engine Opticon 2 (MJ Research Incorporated). TheDyNAmo SYBR Green qPCR kit (Finnzymes) was used as the fluoresent dye specific for double-stranded DNA. PCR conditions consisted of an initial denaturation step of 95° C. for 10 minutes, followed by 39 cycles of 94° C. for 10 secs, 55° C. for 20 secs and 72° C. for 20 secs, with a final extension of 72° C. for 10 minutes. A melting curve was included at the end of each run to check the specificity of the amplified product. Experiments were performed in triplicate to ensure reproducibility of the technique. On completion of the run the PCR products were run put on a 2% ethidium bromide agarose gel to confirm that their size matched that of the expected amplicon. Primer sequences were as follows: Fas (Forward) […], Fas (Reverse) […], 18S (Forward) […], 18S (Reverse) […].
# M7TS90-E6 cells = assay: Flow cytometry sub-G1/G0 apoptotic fraction, M7TS90-E6; format: cell-based; details: 96 hours after drug treatment; RTX 100 nM, MTA 1 μM, 5-FU 10 μM
# Protocol: as §2
smiles,measurement,setting,value
"O=c1[nH]cc(F)c(=O)[nH]1 [5-FU, 5-fluorouracil]",interaction with CH-11 in MTT assay,HCT116p53^+/+ cells,significant synergy
same,Fas expression,Fas [1],dramatic Fas up-regulation
same,Fas up-regulation,Fas [2],did not result in Fas up-regulation
same,synergistic cytotoxicity of combination with CH-11,[3],synergistic cytotoxicity was demontsrated
same,cytotoxicity at 5 µM,"MCF-7 cells [4]; Homo sapiens, MCF7, read-out: decrease in cell viability compared to control",~60%
same,IC60 dose,MCF-7 cells [4]; MCF-7,5 µM
same,induction of the Fas receptor,Fas receptor,Neither 5-FU nor Oxaliplatin treatment for 48 hours caused significant upregulation
same,induction of apoptosis (sub-G1/G0 fraction),MCF-7 cells [5],~2 fold
same,FasL expression,FasL,unaffected
same,"activation of caspase 8 and BID (processing of procaspase 8 and full-length BID), words","procaspase 8, BID, PARP","neither caspase 8, nor its substrate BID were activated"
same,induction of Fas/CD95 receptor cell surface expression,Fas/CD95 receptor,significantly induce expression
same,Fas expression,Fas [6],not significantly altered
same,Fas protein up-regulation,"Fas [7]; 72 hours, IC60 dose (5 μM 5-FU, 25 nM RTX)",~12 fold
same,Fas expression,"Fas [7]; MTA data not shown, CH-11 alone 250 ng/ml, 5-FU alone 5 μM",dramatic up-regulation
same,Fas mRNA expression,Fas mRNA,up-regulated
same,interaction with CH-11 in MTT assay,HCT116p53^−/− cells,only slight interaction
same,induction of Fas/CD95 protein,"Fas [8]; 5-FU 5 μM, CPT-11 5 μM, Oxaliplatin 1 μM for 48 hours",significant induction
same,up-regulation of Fas expression,Fas [8]; after 48 hours,> 10 fold
same,maximum induction of Fas mRNA,Fas/CD95 mRNA,2 fold
same,induction of apoptosis by drug alone,M7TS90-E6 cells,little apoptosis
